Key:
[1] = test system: breast cancer patients; assay: Response to neoadjuvant everolimus in a breast cancer cohort (GSE119262), by mTOR phenocopy status; type: in vivo, human; conditions: neoadjuvant everolimus followed by surgery
[2] = test system: breast cancer patients; assay: Pathologic complete response in the chemoimmunotherapy (pembrolizumab) arm of the I-SPY2 trial, by TP53 loss phenocopy status; type: in vivo, human; conditions: pembrolizumab with anthracycline/taxane-based neoadjuvant chemotherapy backbone
Text: In addition, we sought to identify published cohorts with pre-chemotherapy RNA profiling with pathologic response data. The majority of data we could find was in the setting of breast cancer neoadjuvant chemotherapy, where response could be assessed at the time of surgery. Our dataset evaluating clinical treatment response and the phenocopy signatures in breast cancer included 18 breast cancer cohorts with gene expression data downloaded from the Gene Expression Omnibus (GEO) with the following accession numbers: GSE22093, GSE25055, GSE41998, GSE20194, GSE4779, GSE8465, GSE66399, GSE16446, GSE20271, GSE18864, GSE25065, GSE32646, GSE164458, GSE22226, GSE192341, GSE163882, GSE34138, GSE32603, and one additional publicly available TNBC gene expression cohort^48. Finally, we utilized gene expression and clinical response data from the I-SPY2 trial as an independent clinical validation cohort for our phenocopy signatures and breast cancer neoadjuvant therapy response, also downloaded from GEO (GSE194040).
Each of the breast cancer datasets had annotations for pathologic response (pCR versus no pCR) for each sample. The TP53 phenocopy signature was then applied without modification to pre-treatment samples from each breast cancer study, with normalization/batch correction as above. […]

Question: With `CO[C@H]1C[C@@H]2CC[C@@H](C)[C@@](O)(O2)C(=O)C(=O)N2CCCC[C@H]2C(=O)O[C@H]([C@H](C)C[C@@H]2CC[C@@H](OCCO)[C@H](OC)C2)CC(=O)[C@H](C)/C=C(\C)[C@@H](O)[C@@H](OC)C(=O)[C@H](C)C[C@H](C)/C=C/C=C/C=C/1C` [everolimus] as the compound, how does the “tumors that responded to anti-mTOR therapy” value ([1]; pre-treatment non-mTOR phenocopy tumors) read?
Answer: The value was 75.8%.

Question: And the “tumors that responded to anti-mTOR therapy” value ([1]; pre-treatment samples predicted as mTOR mutation phenocopies)?
Answer: Its value is 100%.

Question: Which pCR rate ([2]; TP53 loss phenocopy samples) does the source give for pembrolizumab here?
Answer: The pCR rate was 64%.

Question: And the pCR rate ([2]; non-phenocopy samples)?
Answer: The pCR rate was 28%.
